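Cells were grown in 96-well plates and exposed to each compound for 48 hours at five concentrations; endpoints were interpolated linearly between bracketing concentrations, or set to the highest concentration if not reached. At the GI50, growth is halved.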 Calls of active or inactive are those of the source. Rule as the data show it: active = GI50 up to about 1.1 µM and inactive = higher.
What was measured:
Experiment in all cases: inhibition of tumour cell growth, NCI panel, 48 h
[1] = tested on: HOP-62
[2] = tested on: NCI-H23
[3] = tested on: TK-10
[4] = tested on: 786-0
[5] = tested on: OVCAR-8
[6] = tested on: SNB-75
[7] = tested on: HCC 2998
[8] = tested on: SF-295
[9] = tested on: IGROV-1
[10] = tested on: SK-MEL-5
[11] = tested on: MDA-MB-435
[12] = tested on: CCRF-CEM
[13] = tested on: SNB-19
[14] = tested on: EKVX
[15] = tested on: SR
[16] = tested on: UACC-257
[17] = tested on: U-251
[18] = tested on: LOX IMVI

SMILES	GI50 [1]	GI50 [2]	GI50 [3]	GI50 [4]	GI50 [5]	GI50 [6]	GI50 [7]	GI50 [8]	GI50 [9]	GI50 [10]	GI50 [11]	GI50 [12]	GI50 [13]	GI50 [14]	GI50 [15]	GI50 [16]	GI50 [17]	GI50 [18]
O=[N+]([O-])c1ccc2c(/N=N/c3ccc4ccccc4c3O)c(O)cc(S(=O)(=O)O)c2c1	24.9 µM (inactive)	31.3 µM (inactive)	> 65.3 µM (inactive)	18.7 µM (inactive)	7.41 µM (inactive)	26.7 µM (inactive)	39.5 µM (inactive)	32 µM (inactive)	8.65 µM (inactive)	15.8 µM (inactive)	16.7 µM (inactive)	8.77 µM (inactive)	13.2 µM (inactive)	14.7 µM (inactive)	> 29.3 µM (inactive)	31.3 µM (inactive)	7.41 µM (inactive)	6.65 µM (inactive)
CC1OC(OC2C(OC(=O)[C@]34CCC(C)(C)C[C@H]3C3=CC[C@@H]5[C@@]6(C)CC[C@H](OC7OC(C(=O)O)C(O)C(O)C7O)C(C)(C)[C@@H]6CC[C@@]5(C)[C@]3(C)C[C@H]4O)OCC(O)C2O)C(O)C(O)C1OC1OCC(OC2OCC(O)C(O)C2O)C(O)C1O (stereo partly drawn)	13.2 µM (inactive)	2.14 µM (inactive)		11.1 µM (inactive)	15.9 µM (inactive)	13.2 µM (inactive)	1.53 µM (inactive)	10.2 µM (inactive)	12.8 µM (inactive)	13.9 µM (inactive)	4.59 µM (inactive)	> 10 µM (inactive)	5.51 µM (inactive)	4.16 µM (inactive)	7.23 µM (inactive)	8.63 µM (inactive)	7.85 µM (inactive)	11.9 µM (inactive)
Sc1ncc2[nH]nnc2n1	> 100 µM (inactive)	> 100 µM (inactive)	> 100 µM (inactive)	> 100 µM (inactive)	> 100 µM (inactive)	> 100 µM (inactive)	> 100 µM (inactive)	> 100 µM (inactive)	> 100 µM (inactive)	> 100 µM (inactive)	> 100 µM (inactive)	> 100 µM (inactive)	> 100 µM (inactive)	> 100 µM (inactive)	> 100 µM (inactive)	> 100 µM (inactive)	> 100 µM (inactive)	> 100 µM (inactive)
NC(=O)c1cn(C2OC(CO)C(O)C2O)c2nc[n+]([O-])c(N)c12 (stereo not drawn)	0.133 µM (active)	0.121 µM (active)	0.0324 µM (active)	0.126 µM (active)	0.094 µM (active)	0.13 µM (active)		0.262 µM (active)	1.05 µM (active)	0.0333 µM (active)	0.167 µM (active)	0.1 µM (active)	0.542 µM (active)	1.21 µM (inactive)	0.0509 µM (active)	0.244 µM (active)	0.285 µM (active)	0.104 µM (active)
CC(=O)N1C(Nc2ccccc2)CCN1c1ccccc1 (stereo not drawn)	> 10 µM (inactive)	> 10 µM (inactive)	> 10 µM (inactive)	> 10 µM (inactive)	> 10 µM (inactive)	> 10 µM (inactive)	> 10 µM (inactive)	3.96 µM (inactive)	> 10 µM (inactive)	> 10 µM (inactive)	3.68 µM (inactive)	> 10 µM (inactive)	> 10 µM (inactive)	> 10 µM (inactive)	> 10 µM (inactive)	> 10 µM (inactive)		> 10 µM (inactive)
CCc1cccc2c3c([nH]c12)-c1ccccc1NC(=O)C3	> 100 µM (inactive)	> 100 µM (inactive)	> 100 µM (inactive)	> 100 µM (inactive)	> 100 µM (inactive)	13.2 µM (inactive)		> 100 µM (inactive)	> 100 µM (inactive)	> 100 µM (inactive)	35.3 µM (inactive)	> 100 µM (inactive)	> 100 µM (inactive)	> 100 µM (inactive)		> 100 µM (inactive)	> 100 µM (inactive)	72.9 µM (inactive)
